# Source: patent US7138361B2, “Herbicidal heterocycles” (E. I. du Pont de Nemours and Company, priority 2000, dated 2006)
# What was measured:
# Assay in all cases: Test C preemergence
# Assay type in all cases: in vivo
# Nightshade [1] = tested on: Nightshade
# Sunflower = tested on: Sunflower
# [2] = tested on: Surinam grass (Brachiaria decumbens)
# Method in brief: (§1)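 Plants held in greenhouse for 12–14 days post-application are scored by eye against controls on a 0–100 control scale. Application timing: preemergence on sown seed, or postemergence on 2–18 cm plants.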
# [3] = tested on: bermudagrass (Cynodon dactylon)
# Method in brief: as §1
# [4] = tested on: cocklebur (Xanthium strumarium)
# Method in brief: as §1
# [5] = tested on: common ragweed (Ambrosia elatior)
# Method in brief: as §1
# corn (Zea mays) = tested on: corn (Zea mays)
# Method in brief: as §1
# [6] = tested on: crabgrass (Digitaria sanguinalis)
# Method in brief: as §1
# [7] = tested on: giant foxtail (Setaria faberii)
# Method in brief: as §1
# [8] = tested on: goosegrass (Eleusine indica)
# Method in brief: as §1
# [9] = tested on: johnsongrass (Sorghum halepense)
# Method in brief: as §1
# kochia (Kochia scoparia) = tested on: kochia (Kochia scoparia)
# Method in brief: as §1
# [10] = tested on: lambsquarters (Chenopodium album)
# Method in brief: as §1
# [11] = tested on: morningglory (Ipomoea hederacea)
# Method in brief: as §1
# [12] = tested on: pigweed (Amaranthus retroflexus)
# Method in brief: as §1
# soybean (Glycine max) = tested on: soybean (Glycine max)
# Method in brief: as §1
# [13] = tested on: velvetleaf (Abutilon theophrasti)
# Method in brief: as §1
# [14] = tested on: woolly cupgrass (Eriochloa villosa)
# Method in brief: as §1
# [15] = tested on: yellow nutsedge (Cyperus esculentus)
# Method in brief: as §1
# Nightshade [16] = details: Rate 250 g/ha, visual evaluation after 12 to 14 days
# [17] = Rate 62 g/ha, scale 0 to 100, 0 no effect, 100 complete control
# [18] = Preemergence, Rate 500 g/ha, scale 0 to 100
# [19] = preemergence, Rate 250 g/ha, visual evaluation after 12 to 14 days
# [20] = preemergence, Rate 125 g/ha, scale 0 to 100, 0 no effect, 100 complete control
smiles,measurement,setting,value
O=C1C(n2ccc(C3CCC3)n2)SCN1c1cccc(OC(F)F)c1 (stereo not drawn) [Compound 45],"Plant response rating, Nightshade",Nightshade [1]; [17],0
same,"Plant response rating, Nightshade","Nightshade [1]; Rate 125 g/ha, scale 0 to 100, 0 no effect, 100 complete control",0
same,"Plant response rating, Nightshade","Nightshade [1]; Rate 500 g/ha, scale 0 to 100",40
same,"Plant response rating, Sunflower",Sunflower; [17],20
same,"Plant response rating, Sunflower","Sunflower; Rate 500 g/ha, scale 0 to 100",70
same,"Plant response rating, Surinam grass",[2]; [18],70
same,"Plant response rating, Surinam grass",[2]; [17],0
same,"Plant response rating (0 to 100), Surinam grass",[2]; [19],40
same,"Plant response rating, Surinam grass",[2]; [20],0
same,"Plant response rating, Bermudagrass",[3]; [18],100
same,"Plant response rating, Bermudagrass",[3]; [17],50
same,"Plant response rating (0 to 100 where 0 is no effect and 100 is complete control), Bermudagrass",[3]; [19],100
same,"Plant response rating, Bermudagrass",[3]; [20],90
same,"Plant response rating, Cocklebur",[4]; [18],90
same,"Plant response rating (0 to 100), Cocklebur",[4]; [19],20
same,"Plant response rating, Cocklebur",[4]; [20],0
same,"Plant response rating, Ragweed, Common",[5]; [18],60
same,"Plant response rating, Ragweed, Common",[5]; [17],0
same,"Plant response rating (0 to 100), Ragweed, Common",[5]; [19],30
same,"Plant response rating, Ragweed, Common",[5]; [20],0
same,"Plant response rating, Corn",corn (Zea mays); [18],0
same,"Plant response rating, Corn",corn (Zea mays); [17],0
same,"Plant response rating (0 to 100), Corn",corn (Zea mays); [19],0
same,"Plant response rating, Corn",corn (Zea mays); [20],0
same,"Plant response rating, Crabgrass",[6]; [18],100
same,"Plant response rating, Crabgrass",[6]; [17],90
same,"Plant response rating (0 to 100), Crabgrass",[6]; [19],100
same,"Plant response rating, Crabgrass",[6]; [20],100
same,"Plant response rating, Foxtail, Giant",[7]; [18],90
same,"Plant response rating, Foxtail, Giant",[7]; [17],30
same,"Plant response rating (0 to 100), Foxtail, Giant",[7]; [19],40
same,"Plant response rating, Foxtail, Giant",[7]; [20],40
same,"Plant response rating, Goosegrass",[8]; [18],100
same,"Plant response rating, Goosegrass",[8]; [17],90
same,"Plant response rating (0 to 100), Goosegrass",[8]; [19],100
same,"Plant response rating, Goosegrass",[8]; [20],100
same,"Plant response rating, Johnsongrass",[9]; [18],100
same,"Plant response rating, Johnsongrass",[9]; [17],0
same,"Plant response rating (0 to 100), Johnsongrass",[9]; [19],50
same,"Plant response rating, Johnsongrass",[9]; [20],0
same,"Plant response rating, Kochia",kochia (Kochia scoparia); [18],100
same,"Plant response rating, Kochia",kochia (Kochia scoparia); [17],20
same,"Plant response rating (0 to 100), Kochia",kochia (Kochia scoparia); [19],90
same,"Plant response rating, Kochia",kochia (Kochia scoparia); [20],60
same,"Plant response rating, Lambsquarters",[10]; [18],100
same,"Plant response rating, Lambsquarters",[10]; [17],60
same,"Plant response rating (0 to 100), Lambsquarters",[10]; [19],100
same,"Plant response rating, Lambsquarters",[10]; [20],100
same,"Plant response rating, Morningglory",[11]; [18],0
same,"Plant response rating, Morningglory",[11]; [17],0
same,"Plant response rating (0 to 100), Morningglory",[11]; [19],0
same,"Plant response rating, Morningglory",[11]; [20],0
same,"Plant response rating, Pigweed",[12]; [18],30
same,"Plant response rating, Pigweed",[12]; [17],0
same,"Plant response rating (0 to 100), Pigweed",[12]; [19],0
same,"Plant response rating, Pigweed",[12]; [20],0
same,"Plant response rating, Soybean",soybean (Glycine max); [18],0
same,"Plant response rating, Soybean",soybean (Glycine max); [17],0
same,"Plant response rating (0 to 100), Soybean",soybean (Glycine max); [19],0
same,"Plant response rating, Soybean",soybean (Glycine max); [20],0
same,"Plant response rating, Velvetleaf",[13]; [18],30
same,"Plant response rating, Velvetleaf",[13]; [17],0
same,"Plant response rating (0 to 100), Velvetleaf",[13]; [19],20
same,"Plant response rating, Velvetleaf",[13]; [20],0
same,"Plant response rating, Cupgrass, Woolly",[14]; [18],100
same,"Plant response rating, Cupgrass, Woolly",[14]; [17],0
same,"Plant response rating (0 to 100), Cupgrass, Woolly",[14]; [19],70
same,"Plant response rating, Cupgrass, Woolly",[14]; [20],30
same,"Plant response rating, Nutsedge",[15]; [18],100
same,"Plant response rating (0 to 100), Nutsedge",[15]; [19],60
same,"Plant response rating, Nutsedge",[15]; [20],0
same,"Plant response rating (0 to 100), Nightshade",Nightshade [16],0
